# Measurements as given in ChEMBL document CHEMBL1155778, “The many roles for fluorine in medicinal chemistry” (J Med Chem, 2008).
# Columns and labels:
# [1] = Dissociation constant, pKa of the compound; format: physicochemical
# [2] = Half life in rat plasma at 2 mg/kg, po; format: ADME, organism-based; design: dose 2 mg/kg, route oral
# [3] = Plasma clearance in rat at 2 mg/kg, po; format: ADME, organism-based; design: dose 2 mg/kg, route oral
# [4] = Cmax in rat at 2 mg/kg, po; format: ADME, organism-based; design: dose 2 mg/kg, route oral; conditions: in vivo
# [5] = target: Cannabinoid receptor 1 (Homo sapiens, UniProt P21554); assay: Displacement of [3H]CP-55940 from human CB1 receptor expressed in CHO cells; format: cell-based
# Cannabinoid receptor 1, sequence (P21554 whole entry): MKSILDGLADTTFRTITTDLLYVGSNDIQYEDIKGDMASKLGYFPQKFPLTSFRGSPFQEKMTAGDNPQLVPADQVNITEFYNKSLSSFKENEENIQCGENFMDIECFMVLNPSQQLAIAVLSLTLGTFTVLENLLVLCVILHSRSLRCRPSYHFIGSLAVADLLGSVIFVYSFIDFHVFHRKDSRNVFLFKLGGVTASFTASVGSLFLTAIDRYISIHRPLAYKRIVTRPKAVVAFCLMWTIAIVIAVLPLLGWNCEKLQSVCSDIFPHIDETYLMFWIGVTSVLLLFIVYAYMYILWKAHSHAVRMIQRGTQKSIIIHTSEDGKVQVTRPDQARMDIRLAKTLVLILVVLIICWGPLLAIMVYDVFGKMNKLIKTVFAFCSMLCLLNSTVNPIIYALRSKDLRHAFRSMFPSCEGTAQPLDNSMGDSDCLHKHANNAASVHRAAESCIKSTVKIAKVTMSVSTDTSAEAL
# [6] = Half life in human plasma; format: ADME, organism-based
# [7] = target: Prothrombin (Homo sapiens, UniProt P00734); assay: Inhibition of human thrombin
# [8] = Metabolic stability in rat hepatocytes after 2 hrs
# [9] = tested on: Liver microsomes; assay: Metabolic stability in human liver microsomes assessed as covalent protein binding per mg of protein; format: ADME, Microsome
# [10] = Cmax in rat at 10 mg/kg, po; format: ADME, organism-based; design: dose 10 mg/kg, route oral; conditions: in vivo
# [11] = Drug level in duct cannulated rat bile at 5 mg/kg, iv; format: ADME, organism-based; design: dose 5 mg/kg, route intravenous; conditions: in vivo, read-out: Drug uptake
# [12] = target: T1, Prostaglandin D2 receptor (Homo sapiens, UniProt Q13258)
# T1 sequence (Q13258 whole entry): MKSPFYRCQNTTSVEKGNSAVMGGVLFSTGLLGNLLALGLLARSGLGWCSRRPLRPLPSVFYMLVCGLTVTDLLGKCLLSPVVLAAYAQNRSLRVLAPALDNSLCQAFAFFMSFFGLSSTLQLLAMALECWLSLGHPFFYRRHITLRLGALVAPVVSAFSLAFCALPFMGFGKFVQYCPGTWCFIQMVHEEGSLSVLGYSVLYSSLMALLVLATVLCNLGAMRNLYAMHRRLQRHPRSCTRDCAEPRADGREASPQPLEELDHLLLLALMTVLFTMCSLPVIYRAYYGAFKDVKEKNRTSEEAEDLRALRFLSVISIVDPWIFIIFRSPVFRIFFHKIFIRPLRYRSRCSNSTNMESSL
# [13] = Plasma clearance in rat at 10 mg/kg, po; format: ADME, organism-based; design: dose 10 mg/kg, route oral
# [14] = Half life in rat plasma at 10 mg/kg, po; format: ADME, organism-based; design: dose 10 mg/kg, route oral
# [15] = Oral bioavailability in rat; format: ADME, organism-based; conditions: in vivo
# [16] = tested on: Meriones unguiculatus; assay: Inhibition of GR-73632-induced foot-tapping in iv dosed gerbils after 24 hrs; format: functional; conditions: read-out: ID50 (the source's name)
# [17] = tested on: Cavia porcellus; assay: Inhibition of resiniferatoxin-induced systemic vascular leakage in po dosed guinea pig […] model after 24 hrs; format: functional
# [18] = target: T2, Cathepsin K (Homo sapiens, UniProt P43235); assay: Inhibition of cathepsin K
# T2 sequence (P43235 whole entry): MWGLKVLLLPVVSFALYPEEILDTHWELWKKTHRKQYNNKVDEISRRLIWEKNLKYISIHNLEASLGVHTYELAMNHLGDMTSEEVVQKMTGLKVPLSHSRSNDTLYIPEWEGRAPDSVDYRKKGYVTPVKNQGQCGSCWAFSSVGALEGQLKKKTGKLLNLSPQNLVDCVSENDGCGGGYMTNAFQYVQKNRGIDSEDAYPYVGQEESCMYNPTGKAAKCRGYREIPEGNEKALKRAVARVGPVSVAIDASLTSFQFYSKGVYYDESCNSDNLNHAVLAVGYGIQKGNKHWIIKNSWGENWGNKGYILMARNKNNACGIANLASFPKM
# [19] = target: Substance-P receptor (Homo sapiens, UniProt P25103); assay: Inhibition of NK1 receptor
# Substance-P receptor, sequence (P25103 whole entry): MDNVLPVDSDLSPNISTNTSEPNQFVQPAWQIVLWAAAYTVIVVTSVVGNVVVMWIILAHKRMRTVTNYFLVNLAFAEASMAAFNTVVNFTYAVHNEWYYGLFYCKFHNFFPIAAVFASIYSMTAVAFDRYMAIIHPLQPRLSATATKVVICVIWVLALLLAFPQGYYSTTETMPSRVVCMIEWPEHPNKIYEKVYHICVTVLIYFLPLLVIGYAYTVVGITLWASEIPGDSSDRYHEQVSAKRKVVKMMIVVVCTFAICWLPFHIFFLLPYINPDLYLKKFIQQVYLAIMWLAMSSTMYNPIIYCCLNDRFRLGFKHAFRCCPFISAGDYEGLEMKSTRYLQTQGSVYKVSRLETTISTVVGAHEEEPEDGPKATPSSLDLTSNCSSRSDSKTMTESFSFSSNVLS
smiles,measurement,setting,value
Fc1cccnc1,pKa,[1],2.97
N[C@@H](CC(=O)N1CCn2c(nnc2C(F)(F)F)C1)Cc1ccc(F)c(F)c1,half-life,[2],1.8 h
same,CL/F,[3],51 mL/min/kg
Cc1nnn[nH]1,pKa,[1],4.9
Fc1cccc2cccnc12,pKa,[1],3.1
C[C@H](NC(=O)C(C)(C)Oc1cc(F)cc(F)c1)[C@@H](Cc1ccc(Cl)cc1)c1ccccc1,Cmax,[4],0.3 µM
same,IC50,[5],1.47 nM
same,half-life,[2],2.4 h
same,CL/F,[3],35 mL/min/kg
O=C(O)c1cccc(F)c1,pKa,[1],3.87
O=C(O)C(F)F,pKa,[1],1.24
OCC(F)(F)F [TRIFLUOROETHANOL],pKa,[1],12.4
Cc1ccc(-c2cc(C(F)(F)F)nn2-c2ccc(S(N)(=O)=O)cc2)cc1 [CELECOXIB],half-life,[6],11.2 h
N=C(N)c1ccc([C@H]2C3C(=O)N(Cc4ccccc4F)C(=O)C3C3CCCN32)cc1 (some centres not stated),Ki,[7],500 nM
CC(=O)c1cc(F)cc2c3c(n(Cc4ccc(Cl)cc4)c12)C(CC(=O)O)CC3 (configuration not stated),remaining at 2 h,[8],35%
same,Activity,[9],46 pmol/h
same,Cmax,[10],21 µM
same,concentration,[11],81 µM
same,Ki,[12],1.1 nM
same,CL/F,[13],1.9 mL/min/kg
same,half-life,[14],4 h
same,bioavailability,[15],52%
Fc1ccccn1,pKa,[1],-0.44
C[C@H](NC(=O)C(C)(C)Oc1ccc(C(F)(F)F)cn1)[C@@H](Cc1ccc(Cl)cc1)c1cccc(C#N)c1 [TARANABANT],Cmax,[4],0.49 µM
same,half-life,[2],2.7 h
same,CL/F,[3],33 mL/min/kg
Nc1cccc(C(F)(F)F)c1,pKa,[1],3.49
Nc1ccccc1F,pKa,[1],3.2
O=c1[nH]nc(CN2CCO[C@H](OCc3cc(C(F)(F)F)cc(C(F)(F)F)c3)[C@@H]2c2ccccc2)[nH]1,ED50,[16],2.88 mg/kg
same,ID90,[17],5.4 mg/kg
Nc1ccc(F)cc1,pKa,[1],4.65
Oc1ccccc1F,pKa,[1],8.73
CS(=O)(=O)c1cc(F)cc2c3c(n(Cc4ccc(Cl)cc4)c12)C(CC(=O)O)CC3 (stereo not drawn) [DIASTEREOMER 2],remaining at 2 h,[8],32%
same,Cmax,[10],39 µM
same,concentration,[11],103 µM
same,CL/F,[13],2.4 mL/min/kg
same,half-life,[14],7 h
same,bioavailability,[15],79%
N[C@@H](CC(=O)N1CCn2c(nnc2C(F)(F)C(F)(F)F)C1)Cc1cc(F)c(F)cc1F,half-life,[2],2.3 h
same,CL/F,[3],58 mL/min/kg
Fc1cnc2ccccc2c1,pKa,[1],2.36
CCc1nnc2n1CCN(C(=O)C[C@H](N)Cc1cc(F)c(F)cc1F)C2,half-life,[2],1.7 h
same,CL/F,[3],70 mL/min/kg
N[C@@H](CC(=O)N1CCn2c(nnc2C(F)(F)F)C1)Cc1cc(F)c(F)cc1F [SITAGLIPTIN],half-life,[2],1.7 h
same,CL/F,[3],60 mL/min/kg
O=C(O)CC(F)(F)F,pKa,[1],3.06
N[C@@H](CC(=O)N1CCn2cnnc2C1)Cc1cc(F)c(F)cc1F,half-life,[2],1 h
same,CL/F,[3],40 mL/min/kg
O=C(O)c1ccccc1F,pKa,[1],3.27
O=c1[nH]nc(CN2CCO[C@H](OCc3cc(C(F)(F)F)cc(C(F)(F)F)c3)[C@@H]2c2ccc(F)cc2)[nH]1,ED50,[16],1.24 mg/kg
same,ID90,[17],2.3 mg/kg
CC(C)C[C@H](N[C@@H](c1ccc(-c2ccc(N3CCNCC3)cc2)cc1)C(F)(F)F)C(=O)NCC#N,IC50,[18],≤ 0.005 nM
C[C@H](NC(=O)C(C)(C)Oc1ccccn1)[C@@H](Cc1ccc(Cl)cc1)c1ccccc1,Cmax,[4],0.44 µM
same,half-life,[2],2.2 h
same,CL/F,[3],25 mL/min/kg
same,bioavailability,[15],29%
Oc1cccc(F)c1,pKa,[1],9.29
N=C(N)c1ccc([C@H]2C3C(=O)N(Cc4cccc(F)c4)C(=O)C3C3CCCN32)cc1 (some centres not stated),Ki,[7],360 nM
C[C@H](NC(=O)C(C)(C)Oc1ccccc1)[C@@H](Cc1ccc(Cl)cc1)c1ccccc1,Cmax,[4],0.18 µM
same,half-life,[2],2.8 h
same,CL/F,[3],33 mL/min/kg
same,bioavailability,[15],9%
C[C@@H](O[C@H]1OCCN(Cc2n[nH]c(=O)[nH]2)[C@H]1c1ccc(F)cc1)c1cc(C(F)(F)F)cc(C(F)(F)F)c1 [APREPITANT],ED50,[16],0.33 mg/kg
same,ID90,[17],1.8 mg/kg
CC(=O)c1cc(S(C)(=O)=O)cc2c3c(n(Cc4ccc(Cl)cc4)c12)[C@@H](CC(=O)O)CC3,remaining at 2 h,[8],93%
same,Activity,[9],18 pmol/h
same,concentration,[11],1100 µM
same,CL/F,[13],14 mL/min/kg
same,half-life,[14],1.4 h
same,bioavailability,[15],100%
N#CCNC(=O)C1(N[C@@H](c2ccc(-c3ccc(N4CCNCC4)cc3)cc2)C(F)(F)F)CCCCC1,IC50,[18],5 nM
Oc1ccc(F)cc1,pKa,[1],9.89
Oc1cccc(C(F)(F)F)c1,pKa,[1],8.9
Fc1cccc2ncccc12,pKa,[1],3.68
N[C@@H](CC(=O)N1CCn2c(nnc2C(F)(F)F)C1)Cc1cc(F)ccc1F,half-life,[2],1.6 h
same,CL/F,[3],43 mL/min/kg
C[C@@H](O[C@H]1OCCN(Cc2n[nH]c(=O)[nH]2)[C@H]1c1ccccc1)c1cc(C(F)(F)F)cc(C(F)(F)F)c1,IC50,[19],0.09 nM
same,ED50,[16],1.11 mg/kg
same,ID90,[17],2.3 mg/kg
Fc1ccc2ncccc2c1,pKa,[1],4
C[C@H](NC(=O)C(C)(C)Oc1ccc(C(F)(F)F)cn1)[C@@H](Cc1ccc(Cl)cc1)c1ccccc1,Cmax,[4],1.2 µM
same,IC50,[5],0.54 nM
same,half-life,[2],2.2 h
same,CL/F,[3],35 mL/min/kg
same,bioavailability,[15],100%
CC(C)C[C@H](NC(=O)c1ccc(-c2ccc(N3CCNCC3)cc2)cc1)C(=O)NCC#N,IC50,[18],0.015 nM
O=C(O)c1ccc(F)cc1,pKa,[1],4.14
FC(F)(F)c1nnn[nH]1,pKa,[1],1.7
O=C(O)c1cccc(C(F)(F)F)c1,pKa,[1],3.79
N#CCNC(=O)C1(NC(=O)c2ccc(-c3ccc(N4CCNCC4)cc3)cc2)CCCCC1,IC50,[18],0.4 nM
Fc1ccc2cccnc2c1,pKa,[1],4.04
Nc1ccc(C(F)(F)F)cc1,pKa,[1],2.57
